Test results taken from PMC10680739 (bioRxiv, 2023).
Where two headings read alike, the source gives them in different places.

Tests used:
[1] = tested on: HgmTad2; type: binding, Bacteroides phages (human gut metagenomic libraries)
[2] = tested on: ColiTad1; type: binding, Colidexitribacter sp. OB.20; settings: native gel combined with ITC
[3] = target: T1, SBS Tad1 (Bacillus phage SBSphiJ7, UniProt P0DW57); type: binding, Bacillus cereus phage SBSphiJ7; settings: native gel combined with ITC
[4] = target: T1, SBS Tad1; assay: biochemical; type: binding, Bacillus cereus phage SBSphiJ7
[5] = tested on: HgmTad2; type: binding, Bacteroides phages (human gut metagenomic libraries); settings: HPLC; HgmTad2 of State 1; 40 μM protein, 4 μM ligand
[6] = target: CmTad1 (Clostridioides mangenotii, UniProt P0DW61); type: binding, Clostridioides mangenotii prophage; settings: for binding to CmTad1 in words: among the CDNs tested
[7] = target: SPO1 Tad2 (Bacillus phage SP01, UniProt B6V311); type: binding, Bacillus cereus phage SPO1; settings: HPLC; 40 μM protein, 4 μM ligand
[8] = native PAGE, HgmTad2 of State 1

Sequence of CmTad1 (P0DW61 whole entry): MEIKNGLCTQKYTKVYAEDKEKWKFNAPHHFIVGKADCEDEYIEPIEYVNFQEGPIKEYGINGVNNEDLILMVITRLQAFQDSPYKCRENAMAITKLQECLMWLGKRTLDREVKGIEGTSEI
T1 sequence (P0DW57 whole entry, looked up): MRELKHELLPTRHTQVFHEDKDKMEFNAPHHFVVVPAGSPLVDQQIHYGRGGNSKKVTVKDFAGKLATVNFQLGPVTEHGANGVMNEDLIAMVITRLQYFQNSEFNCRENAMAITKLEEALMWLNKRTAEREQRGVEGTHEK
Sequence of SPO1 Tad2 (B6V311 whole entry, looked up): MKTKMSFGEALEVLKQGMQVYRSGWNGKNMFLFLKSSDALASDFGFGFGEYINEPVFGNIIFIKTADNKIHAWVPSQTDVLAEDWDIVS

Q: Which “native gel shift of HgmTad2 upon adding ligand” value ([1]; native gel, purified HgmTad2 in all the three states) does the source give for `Nc1ncnc2c1ncn2[C@@H]1O[C@@H]2COP(=O)(O)OP(=O)(O)OC[C@H]3OC(O[C@@H]1[C@@H]2O)[C@H](O)[C@@H]3O` [1''-2' gcADPR] here?
A: shift

Q: How did the “binding affinity to ColiTad1 in words” value [2] turn out when `Nc1nc2c(ncn2[C@@H]2O[C@@H]3COP(=O)(O)O[C@H]4[C@@H](O)[C@H](n5cnc6c(N)ncnc65)O[C@@H]4COP(=O)(O)O[C@@H]2[C@@H]3O)c(=O)[nH]1` [2',3'-cGAMP] was run?
A: high affinity

Q: How did the “binding affinity to ColiTad1 in words” value [2] turn out when `Nc1nc2c(ncn2[C@@H]2O[C@@H]3COP(=O)(O)O[C@@H]4[C@H](O)[C@@H](COP(=O)(O)O[C@H]3[C@H]2O)O[C@H]4n2cnc3c(N)ncnc32)c(=O)[nH]1` [3',2'-cGAMP] was run?
A: low affinity

Q: And the “binding affinity to SBS Tad1 in words” value [3]?
A: low affinity

Q: Which “binding affinity to ColiTad1 in words” value [2] does the source give for `Nc1nc2c(ncn2[C@@H]2O[C@@H]3COP(=O)(O)O[C@H]4[C@@H](O)[C@H](n5cnc6c(N)ncnc65)O[C@@H]4COP(=O)(O)O[C@H]3[C@H]2O)c(=O)[nH]1` [3',3'-cGAMP] here?
A: low affinity

Q: And the Kd [4]?
A: 48.7 nM

Q: What about the “depletion of ligand after incubation with HgmTad2” value [5] of the same compound?
A: depletes

Q: And the “binding to CmTad1 in words” value [6]?
A: weak binding

Q: What about the “depletion of ligand after incubation with SPO1 Tad2” value [7] of the same compound?
A: does not deplete

Q: And the “native gel shift of HgmTad2 upon adding ligand” value [1, 8]?
A: significant shift

Q: `Nc1nc2c(ncn2[C@@H]2O[C@@H]3COP(=O)(O)O[C@H]4[C@@H](O)[C@H](n5cnc6c(N)ncnc65)O[C@@H]4COP(=O)(O)O[C@H]4[C@@H](O)[C@H](n5cnc6c(N)ncnc65)O[C@@H]4COP(=O)(O)O[C@H]3[C@H]2O)c(=O)[nH]1` [cAAG] was tested. Which “native gel shift of CmTad1 upon adding ligand” value ([6]; native PAGE, protein 20 μM) did it give?
A: shift

Q: Which “native gel shift of HgmTad2 upon adding ligand” value [1, 8] does the source give for `Nc1nc2c(ncn2[C@@H]2O[C@@H]3COP(=O)(O)O[C@H]4[C@@H](O)[C@H](n5cnc6c(=O)[nH]c(N)nc65)O[C@@H]4COP(=O)(O)O[C@H]3[C@H]2O)c(=O)[nH]1` [cGG, 3’,3’-cyclic di-GMP] here?
A: significant shift

Q: Which Kd [4] does the source give for `Nc1ncnc2c1ncn2[C@@H]1O[C@@H]2COP(=O)(O)O[C@H]3[C@@H](O)[C@H](n4ccc(=O)[nH]c4=O)O[C@@H]3COP(=O)(O)O[C@H]2[C@H]1O` [cUA] here?
A: 53.9 nM

Q: And the “binding to CmTad1 in words” value [6]?
A: weak binding

Q: `Nc1nc2c(ncn2[C@@H]2O[C@@H]3COP(=O)(O)O[C@H]4[C@@H](O)[C@H](n5ccc(=O)[nH]c5=O)O[C@@H]4COP(=O)(O)O[C@H]3[C@H]2O)c(=O)[nH]1` [cUG] was tested. Which “native gel shift of HgmTad2 upon adding ligand” value [1, 8] did it give?
A: significant shift
